Test results taken from US20180206495A1, “SUBSTITUTED ARYL AND HETEROARYL CARBOXYLIC ACID HYDRAZIDES OR SALTS THEREOF AND USE THEREOF TO INCREASE STRESS TOLERANCE IN PLANTS” (BAYER CROPSCIENCE AKTIENGESELLSCHAFT, priority 2015, published 2018).

Tests used:
Brassica napus [1] = assay: In vivo analyses Part A: drought stress, spray application, visual damage scoring, Brassica napus
Description: (§1) Seeds of monocotyledonous and dicotyledonous crop plants were sown in sandy loam in wood-fiber or plastic pots, covered with soil or sand and cultivated in a greenhouse under good growth conditions. The trial plants were treated at the early leaf stage (BBCH10-BBCH13). To assure uniform water supply before commencement of stress, the potted plants were supplied with water by dam irrigation prior to substance application. The inventive compounds formulated in the form of wettable powders (WP) were sprayed onto the green parts of the plants as an aqueous suspension at an equivalent water application rate of 600 l/ha with addition of 0.2% wetting agent (e.g. agrotin). Substance application was followed immediately by stress treatment of the plants. For this purpose, the wood-fiber pots were transferred in plastic inserts in order to prevent them from subsequently drying out too quickly. Drought stress was induced by gradual drying out under the following conditions: “Day”: 14 hours with illumination at ˜26-30° C. “Night”: 10 hours without illumination at ˜18-20° C. The duration of the respective stress phases was guided mainly by the condition of the stressed control plants. It was ended (by re-irrigating and transfer to a greenhouse with good growth conditions) as soon as irreversible damage was observed on the stressed control plants. The end of the stress phase was followed by an about 4-7-day recovery phase, during which the plants were once again kept under good growth conditions in a greenhouse. The duration of the recovery phase was guided mainly by when the trial plants had attained a state which enabled visual scoring of potential effects, and is therefore variable. Once this juncture was reached, the intensities of damage were scored visually in comparison to untreated, unstressed controls of the same age. The damage intensity was at first assessed in per cent. These values were then used to calculate the efficacy of the test compounds by the following formula: [formula] EF: Efficacy DIs: Damage intensity of the stressed control plants DIt: Damage intensity of the stressed plants treated with test compound The values reported in tables A-1 to A-3 below are mean values from at least one trial with at least two repeats, showing the effects of selected compounds of the general formula (I) under drought stress on various crop plants.

Zea mays = assay: In vivo analyses Part A: drought stress, spray application, visual damage scoring, Zea mays
Description: as §1

Brassica napus [2] = assay: In vivo analyses Part B: drought stress, spray application, appearance vs stressed control in categories, Brassica napus; design: key: 0: no positive effect; +: slight positive effect; ++: clear positive effect; +++: strong positive effect
Description: (§2) Seeds of monocotyledonous and dicotyledonous crop plants were sown in sandy loam in plastic pots, covered with soil or sand and cultivated in a greenhouse under good growth conditions. The test plants are treated at the early leaf stage (BBCH10-BBCH13). To assure uniform water supply before commencement of stress, the potted plants were supplied with water by dam irrigation prior to substance application. The inventive compounds were first formulated as wettable powders (WP) or dissolved in a solvent mixture. The further dilution was effected with water supplemented with 0.2% wetting agent (e.g. agrotin). The finished spray liquor was sprayed onto the green parts of the plant at an equivalent water application rate of 600 l/ha. Substance application was followed immediately by stress treatment of the plants. Drought stress was induced by gradual drying out under the following conditions: “Day”: 14 hours with illumination at ˜26-30° C. “Night”: 10 hours without illumination at ˜18-20° C. The duration of the respective stress phases was guided mainly by the condition of the stressed control plants. It was ended (by re-irrigating and transfer to a greenhouse with good growth conditions) as soon as irreversible damage was observed on the stressed control plants. The end of the stress phase was followed by an about 4-7-day recovery phase, during which the plants were once again kept under good growth conditions in a greenhouse. The duration of the recovery phase was guided mainly by when the trial plants had attained a state which enabled visual scoring of potential effects, and was therefore variable. Once this juncture had been reached, the appearance of the plants treated with test substances was recorded in comparison to the stressed control plants by the following categories: • 0 no positive effect • + slight positive effect • ++ clear positive effect • +++ strong positive effect In order to rule out any influence on the effects observed by any fungicidal or insecticidal action of the test compounds, it was additionally ensured that the tests proceeded without fungal infection or insect infestation. The values reported in tables B-1 and B-2 below are mean values of the results from at least three repeats. Effects of selected compounds of the general formula (I) under drought stress according to the following tables B-1 and B-2: […]

Triticum aestivum [3] = assay: In vivo analyses Part B: drought stress, spray application, appearance vs stressed control in categories, Triticum aestivum; design: key: 0: no positive effect; +: slight positive effect; ++: clear positive effect; +++: strong positive effect
Description: as §2

Triticum aestivum [4] = assay: In vivo analyses Part A: drought stress, spray application, visual damage scoring, Triticum aestivum
Description: as §1

CN(C)N(Cc1ncc(C(F)(F)F)cc1Cl)C(=O)c1ccncc1C(F)(F)F [C2-36]
EF [%] (BRSNS) (Brassica napus [1]; dosage 25 g/ha): >5%

CN(C)N(CCc1ccc(C(C)(C)C)cc1)C(=O)c1ccc(Cl)cc1 [A9-639]
EF [%] (ZEAMX) (Zea mays; dosage 250 g/ha): >5%

CN(C)N(CCc1ccccc1Cl)C(=O)c1ccccc1C(F)(F)F [A1-612]
Effect (BRSNS) (Brassica napus [2]; dosage 25 g/ha): + | EF [%] (ZEAMX) (Zea mays; dosage 250 g/ha): >5% | Effect (TRZAS) (Triticum aestivum [3]; dosage 25 g/ha): +

CN(C)N(Cc1ccccc1Cl)C(=O)c1cncnc1C(F)(F)Cl [E3-1]
Effect (BRSNS) (Brassica napus [2]; dosage 25 g/ha): + | Effect (TRZAS) (Triticum aestivum [3]; dosage 25 g/ha): +

CN(C)N(Cc1cccc([N+](=O)[O-])c1)C(=O)c1ccncc1 [C1-111]
EF [%] (ZEAMX) (Zea mays; dosage 25 g/ha): >5% | EF [%] (BRSNS) (Brassica napus [1]; dosage 2.5 g/ha): >5% | EF [%] (TRZAS) (Triticum aestivum [4]; dosage 25 g/ha): >5%

CN(C)N(Cc1ccc(Cl)cc1)C(=O)c1ccc(Cl)cc1 [A9-3]
EF [%] (ZEAMX) (Zea mays; dosage 250 g/ha): >5% | EF [%] (BRSNS) (Brassica napus [1]; dosage 250 g/ha): >5%

COc1cc(OC)nc(CN(C(=O)c2ccccc2Cl)N(C)C)n1 [A10-30]
EF [%] (TRZAS) (Triticum aestivum [4]; dosage 250 g/ha): >5%

CN(C)N(Cc1ccccc1C#N)C(=O)c1ccccc1I [A36-61]
Effect (BRSNS) (Brassica napus [2]; dosage 250 g/ha): + | Effect (TRZAS) (Triticum aestivum [3]; dosage 250 g/ha): +

COc1c(C)cnc(CN(C(=O)c2ccc(Cl)cc2Cl)N(C)C)c1C [A12-37]
EF [%] (BRSNS) (Brassica napus [1]; dosage 25 g/ha): >5% | EF [%] (TRZAS) (Triticum aestivum [4]; dosage 25 g/ha): >5%

CN(C)N(Cc1ncc(Cl)cc1Cl)C(=O)c1cccc(Cl)c1 [A28-35]
EF [%] (ZEAMX) (Zea mays; dosage 250 g/ha): >5% | EF [%] (BRSNS) (Brassica napus [1]; dosage 250 g/ha): >5%

CN(C)N(CCc1ccc(Cl)cc1)C(=O)c1ccc(Cl)cc1 [A9-614]
EF [%] (BRSNS) (Brassica napus [1]; dosage 250 g/ha): >5%

COc1ccccc1C(=O)N(Cc1ccccn1)N(C)C [A8-21]
EF [%] (ZEAMX) (Zea mays; dosage 250 g/ha): >5% | EF [%] (BRSNS) (Brassica napus [1]; dosage 25 g/ha): >5% | EF [%] (TRZAS) (Triticum aestivum [4]; dosage 250 g/ha): >5%

CN(C)N(Cc1ncc(C(F)(F)F)cc1Cl)C(=O)c1ccc(Cl)cc1C(F)(F)F [A51-36]
Effect (BRSNS) (Brassica napus [2]; dosage 250 g/ha): + | Effect (TRZAS) (Triticum aestivum [3]; dosage 25 g/ha): +

CN(C)N(Cc1ccccc1Cl)C(=O)c1ccccc1[N+](=O)[O-] [A32-1]
EF [%] (ZEAMX) (Zea mays; dosage 250 g/ha): >5%

Cc1ccc(C(F)(F)F)c(C(=O)N(Cc2ccccn2)N(C)C)c1 [A13-21]
EF [%] (ZEAMX) (Zea mays; dosage 250 g/ha): >5% | EF [%] (BRSNS) (Brassica napus [1]; dosage 25 g/ha): >5% | EF [%] (TRZAS) (Triticum aestivum [4]; dosage 250 g/ha): >5%

CN(C)N(Cc1c(Cl)cc(C(F)(F)F)c(F)c1F)C(=O)c1ccc(F)cc1C(F)(F)F [A14-608]
Effect (BRSNS) (Brassica napus [2]; dosage 25 g/ha): + | Effect (TRZAS) (Triticum aestivum [3]; dosage 25 g/ha): +

CN(C)N(Cc1ccccc1Cl)C(=O)c1ccc(C#N)cc1C(F)(F)F [A48-1]
Effect (BRSNS) (Brassica napus [2]; dosage 25 g/ha): +++ | Effect (TRZAS) (Triticum aestivum [3]; dosage 250 g/ha): +

CN(C)N(Cc1ncc(C(F)(F)F)cc1Cl)C(=O)c1ccc(F)cc1C(F)(F)F [A14-36]
EF [%] (ZEAMX) (Zea mays; dosage 250 g/ha): >5%

CN(C)N(Cc1ccc(Br)cc1F)C(=O)c1ccccc1C(F)(F)F [A1-44]
EF [%] (ZEAMX) (Zea mays; dosage 250 g/ha): >5%

CN(C)N(CCc1cccc(Cl)c1)C(=O)c1ccccc1C(F)(F)F [A1-613]
EF [%] (ZEAMX) (Zea mays; dosage 250 g/ha): >5%

CN(C)N(Cc1ccc2ccccc2n1)C(=O)c1cc(Cl)ccc1Cl [A7-122]
EF [%] (BRSNS) (Brassica napus [1]; dosage 25 g/ha): >5%

CN(C)N(Cc1ccc(Cl)cc1Cl)C(=O)c1ccccc1I [A36-5]
Effect (BRSNS) (Brassica napus [2]; dosage 250 g/ha): ++ | Effect (TRZAS) (Triticum aestivum [3]; dosage 250 g/ha): +

CN(C)N(CCc1ccc(Cl)cc1Cl)C(=O)c1ccc(Cl)cc1 [A9-615]
EF [%] (ZEAMX) (Zea mays; dosage 250 g/ha): >5%

CN(C)N(Cc1nccc(Cl)c1Cl)C(=O)c1ccccc1C(F)(F)F [A1-40, N-[(3,4-Dichloropyridin-2-yl)methyl]-N′,N′-dimethyl-2-(trifluoromethyl)benzohydrazide]
EF [%] (ZEAMX) (Zea mays; dosage 250 g/ha): >5% | EF [%] (BRSNS) (Brassica napus [1]; dosage 2.5 g/ha): >5% | Effect (TRZAS) (Triticum aestivum [3]; dosage 250 g/ha): ++ | EF [%] (TRZAS) (Triticum aestivum [4]; dosage 250 g/ha): >5%

CN(C)N(Cc1c(Cl)cccc1Cl)C(=O)c1ccccc1C(F)(F)F [A1-7]
EF [%] (ZEAMX) (Zea mays; dosage 250 g/ha): >5%

CN(C)N(Cc1c(Cl)cccc1Cl)C(=O)c1ccccc1Cl [A10-7]
EF [%] (BRSNS) (Brassica napus [1]; dosage 250 g/ha): >5%
